“Also recorded” adds a separate entry of the source.
Columns and labels:
[1] = system: small intestinal circular muscle; assay: in vitro circular muscle contractility (spontaneous and bethanechol-stimulated) after SITx; assay type: in vivo, rat
Procedure: To determine whether CO is protective against ileus associated with small bowel transplantation, orthotopic SITx was performed in syngenic Lewis rats. SITx with caval drainage was performed using a previously described procedure. […] The graft was perfused via the aortic segment with 5 ml chilled Ringer's lactate solution, and the intestinal lumen was irrigated with 20 ml of cold saline solution containing 0.5% neomycin-sulfate (Sigma, St. Louis, Mo.). End-to-side anastomoses between the graft aorta and the recipient infrarenal aorta, and between the graft portal vein and recipient vena cava, were performed with 10-0 Novafil™ suture. The cold ischemic time was 1 hour. The entire recipient intestine was removed and the enteric continuity was restored by proximal and distal end-to-end intestinal anastomoses. Recipient animals were given 20 mg/day prophylactic cefamandole nafate for 3 postoperative days. Transplanted recipients were given water 3 hours after surgery, and were fed 24 hours after surgery.
Four groups of animals were examined in this study, two of which received a SITx. Group 1 consisted of unoperated normal rats. Group 2 animals were exposed to CO with no surgery. In Group 3, syngeneic SITx were performed and the recipients kept in room air. Group 4 consisted of SITx recipients that were placed in the CO chamber for 1 hour before surgery and then re-exposed to CO immediately following surgery until sacrificed. In both Groups 3 and 4, normal LEW rats served as donors.
The animals were exposed to CO at a concentration of 250 ppm. Briefly, 1% CO in air was mixed with air (21% oxygen) in a stainless steel mixing cylinder and then directed into a 3.70 ft^3 glass exposure chamber at a flow rate of 12 L/min. A CO analyzer (Interscan, Chatsworth, Calif.) was used to measure CO levels continuously in the chamber. CO concentrations were maintained at 250 ppm at all times. The animals were supplied food and water during the exposures.
The effect of CO treatment on intestinal dysmotility in transplanted grafts was assessed both in vitro and in vivo. […] In vitro circular muscle mechanical activity was measured as previously described (Eskandari et al., Am. J. Physiol. 273(3 Pt 1):G727-34 (1997)). Rats were anesthetized and killed by exsanguination 24 hours post-operatively. A segment of mid-jejunum was pinned in a Sylgaard™ lined dissecting dish containing pre-oxygenated Krebs-Ringer-bicarbonate buffer (KRB; in mM: 137.4 Na^+, 5.9 K^+, 2.5 Ca^2+, 1.2 Mg^2+, 134 Cl^−, 15.5 HCO3^−, 1.2 H2PO4^−, and 11.5 glucose) that was equilibrated with 97% O2/3% CO2. The intestine was opened along the mesenteric border and the mucosa removed by stripping with fine forceps. Full-thickness strips of muscularis (1×6 mm) were cut parallel to the circular muscle layer. Muscle strips were mounted in standard horizontal mechanical organ chambers that were continuously superfused with pre-oxygenated KRB maintained at 37° C. One end of each strip was attached by ligature to a fixed post and the other to an isometric force transducer (WPI, Sarasota, Fla.). Strips were allowed to equilibrate for 1 hour, after which they were incrementally stretched to the length at which maximal spontaneous contraction occurred (Lo). […] Contractile activity was calculated by integrating the area under the trace, normalized by converting the weight and length of the strip to square millimeters of tissue (1.03 mg/mm^2), and reported as g/s/mm^2.

[2] = system: mice subjected to surgical manipulation of the small intestine; assay: intestinal transit of fluorescein-labeled dextran after intestinal manipulation (IM); assay type: in vivo, mouse
Description: Surgical Manipulation. Mice were anesthetized with inhaled isoflurane and the abdomen opened by midline laparotomy. The small intestine was eventrated and gently compressed along its entire length using moistened sterile cotton applicators. This procedure is designed to simulate “running” of the bowel commonly performed during abdominal surgery in the clinical setting. The bowel was repositioned in the abdominal cavity and the incision closed by two layers of continuous sutures. The duration of the procedure was approximately 15 minutes and the animals moved freely about their cage within 20 minutes of withdrawal of anesthetic.
CO Inhalation Treatment. Mice housed in cages were placed in plexiglass chambers that were continuously ventilated with air or with air containing CO (250 ppm). […]
Mice were anesthetized and killed by exsanguination at the end of the 24-hour chamber treatment with CO or room air. In vitro circular muscle mechanical activity was measured as previously described in Eskandari et al. (Am. J. Physiol. 273:G727-G734 (1997)). […] Contractile activity was calculated by integrating the area under the trace. […] Intestinal transit was measured in controls and manipulated animals 24 hours postoperatively by evaluating the intestinal distribution of a non-absorbable fluorescein-labeled dextran (MW 70,000). […]

## [C-]#[O+] [CO, carbon monoxide]
[1]; SITx + CO 250 ppm, 100 μM bethanechol
  peak contractile force: 3.6±0.7 g/mm^2/s
[1]; SITx + CO, Table 2
  Contractile force: 3.0 ± 0.4 g/s/mm^2
[1]; transplanted (SITx) rats, CO 250 ppm, 24 hours after reperfusion
  spontaneous contractile activity: restored
[1]; unoperated animals treated with CO 250 ppm, bethanechol
  peak contractile force: 3.2±0.5 g/mm^2/s
[1]; unoperated control rats, CO 250 ppm for 24 hours
  spontaneous contractile activity: no effect
[2]; IM + CO 250 ppm vs IM, 24 hours postoperatively
  intestinal transit (GC, distribution of labeled dextran): significantly improved; also recorded: more distal distribution; also recorded: significant increase
[2]; unoperated mice, CO 250 ppm alone
  intestinal transit: slight insignificant shift

Reference: patent US7687079B2, “Methods of treating ileus” (priority 2002, dated 2010)
